# Assay results as given in patent publication US20110028420A1, “Regression of Established Atherosclerotic Plaques, and Treating Sudden-Onset Asthma Attacks, using PARP Inhibitors” (priority 2008, published 2011).
# Marks after values point to notes of the source that are not given here.
# What was measured:
# [1] = molecular target: T1, PARP1 (Mus musculus, UniProt P11103); settings: cortical neuron cultures; cited from earlier work
# T1 construct: host or cells: cortical neuron cultures
# [2] = tested on: PARP-2; settings: cited from earlier work
# [3] = tested on: rat; settings: cited from earlier work; for Anti-inflammatory effects in gut inflammation: post-injury administration; for Accumulation of poly (ADP-ribose) in ileum and colon: splanchnic artery occlusion-shocked rats, dinitrobenzene sulfonic acid-treated rats
# [4] = tested on: mice; settings: chronic administration; cited from earlier work
# [5] = tested on: C57BL/6 ApoE−/− mice; assay: Atherosclerotic plaque size and number in aortas of high-fat-diet-fed ApoE−/− mice (en face Oil-Red-O staining); format: in vivo
# Description: (§1) C57BL/6 ApoE^−/− mice (Jackson Laboratory, Bar Harbor, Me.) were housed and bred in a pathogen-free animal care facility at LSUHSC (New Orleans, La.), and were given full access to laboratory rodent chow and water. Principles of laboratory animal care were followed (NIH publication No. 86-23, revised 1985). Experimental protocols were approved by the LSUHSC Animal Care and Use Committee. The animals were divided into six groups to provide proper controls, and to allow calculation of the significance of the results. All Groups were ApoE^−/− mice. The mice were fed a regular diet or a high fat diet for 12 or 16 weeks; in some cases mice that had been fed a high fat diet for 12 weeks were switched to a regular diet for the final 4 weeks (16 weeks total). Some mice were given injections of TIQ-A during the final four weeks, while others were injected with vehicle as controls:
# (§2) The high-fat diet (Harlan Teklad, Madison, Wis.) contained 21% fat by weight (0.15% cholesterol). The regular diet was normal laboratory rodent chow. Controls were given i.p. injections of vehicle three times per week, during the final four weeks. Experimental Groups received i.p. injections of the PARP inhibitor thieno[2,3-c]isoquinolin-5-one (TIQ-A) (Sigma-Aldrich, St Louis, Mo.) at the rate of 3 mg/kg, three times per week, during the last 4 weeks. At the conclusion of each protocol, the mice were fasted, anesthetized with ketamine/xylazine (60 and 3 mg/kg, respectively), and blood was drawn for serum preparation.
# (§3) Perfusion-fixed aortas were dissected and prepared either for en face, Oil-Red-O staining using standard protocols, or for embedding in paraffin. Tissues were sectioned and were stained following standard protocols with haematoxylin and eosin (H&E), trichrome staining, or immunohistochemistry (IHC). Lesion areas were assessed as described in K. Oumona-Benachour et al. (2007). IHC used antibodies against murine smooth muscle actin (SMA) (Santa Cruz Biotechnologies, Santa Cruz, Calif.), or antibodies against CD68. Immunoreactivity was assessed in captured images of immunostained stained sections as described in K. Oumona-Benachour et al. (2007).
# [6] = tested on: C57BL/6 ApoE−/− mice; assay: Histology, trichrome staining and immunohistochemistry (SMA, CD68, MCP-1) of atherosclerotic plaques; format: in vivo
# Description: as §1, §2, §3
# [7] = Fasted plasma cholesterol and LDL (Cholestech LDX); format: in vivo, mice; settings: after overnight fasting; Group 6
# Description: as §2
# Plasma cholesterol and LDL were analyzed using a commercially available kit according to the manufacturer's instructions (Cholestech LDX, Hayward, Calif.).
# [8] = tested on: MCP-1; assay: Quantitative RT-PCR of MCP-1 in thoracic aorta; format: in vivo, mice; settings: normalized versus β-actin
# Description: (§4) RNA was extracted from thoracic aortas, and cDNA was generated by standard methods. PCR Primers for MCP-1 and for actin were as described in C. Hans et al., “Thieno[2,3-c]isoquinolin-5-one (TIQ-A), a potent poly(ADP-ribose) polymerase inhibitor, promotes atherosclerotic plaque regression in high fat diet-fed ApoE-deficient mice: effects on inflammatory markers and lipid content,” J. Pharm. Exp. Ther., vol. 329, pp. 150-158 (2009, published online Jan. 5, 2009). Amplification, detection, and data analysis were performed with the iCycler real-time PCR system (Bio-Rad Laboratories, Hercules, Calif.).
# Several pathways may play a role in the regression of plaques, including some that interfere with the recruitment and retention of monocytes, macrophages and foam cells, cells that appear to be required for the maintenance of advanced plaques. In particular, the continuing recruitment of macrophages into lesions is considered a major factor in maintaining the size and complexity of atherosclerotic plaques. […] To confirm that the decrease in CD68-positive cells was associated with reduced expression of chemotactic factors, we used quantitative RT-PCR to monitor the effect of TIQ-A on MCP-1 expression. We measured transcription of the MCP-1 gene in the thoracic aorta using primers specific for murine MCP-1. Measured values were normalized versus measured levels of transcription of the β-actin gene.
# [9] = tested on: ICAM-1; assay: Quantitative RT-PCR of ICAM-1 in thoracic aorta; format: in vivo; settings: thoracic aortas of Group 6 mice
# Description: as §4
# In addition to MCP-1, the recruitment and their retention of monocytes and macrophages within atherosclerotic plaques requires the expression of adhesion molecules by endothelial and intimal cells. In particular, the adhesion molecule ICAM-1 expression is expressed in the later stages of plaques.
# [10] = tested on: TNF; assay: Quantitative RT-PCR of TNF; format: in vivo, mice; settings: Group 6
# [11] = tested on: CCR2; assay: Expression of the MCP-1 receptor CCR2; format: in vivo; settings: TIQ-A-treated mice
# [12] = tested on: C57BL/6 mice; assay: Eosinophil and inflammatory cell infiltration in lungs and BAL fluid of OVA-sensitized and challenged mice; format: in vivo
# Description: (§5) Mice were bred in a pathogen-free facility at the Louisiana State University Health Science Center (LSUHSC), New Orleans, La., and were given unlimited access to sterilized chow and water. Animal maintenance, experimental protocols, and procedures were approved by the LSUHSC Animal Care & Use Committee. C57BL/6 mice were purchased from Jackson Laboratories (Bar Harbor, Me.). Six-week old C57BL/6 mice (n z 5) were sensitized with two, 100 μg i.p. injections of Grade V chicken ovalbumin (OVA) (Sigma-Aldrich, St. Louis Mo.), mixed with 2 mg aluminum hydroxide in saline. The two injections were given seven days apart. One week after the second sensitization the mice were placed in a Plexiglas chamber and challenged with aerosolized ovalbumin (3% OVA in saline, generated by a Bennett nebulizer, DeVilbiss, Pa.). The challenged mice were held in the chamber with the aerosolized OVA for 30 min. Additional groups of mice were treated by the same protocol, except that they received 6 mg/kg TIQ-A (i.p.) 2 hours prior to challenge, 1 hour post-challenge, or 6 hours post-challenge with OVA. Control groups were neither sensitized, nor challenged. The mice used in each experiment were from the same litter or the same family. Mice were allowed to recover, and then killed by CO2 asphyxiation after 24 or 48 hours. The sacrificed mice were subjected to bronchio-alveolar lavage (BAL), or their lung tissues were dissected, fixed, and processed for histological analysis.
# (§6) A final volume of 5 ml saline was used in BAL to assess inflammatory cells (48 hours post OVA-challenge), or 1 ml saline was used to assess cytokines or IgE (24 hours post OVA-challenge). Formalin-fixed lungs were sectioned and subjected to haematoxylin and eosin (H&E), Periodic Acid-Schiff (PAS)-staining using standard protocols. Mucin was assessed essentially as described in L. Whittaker et al., Am. J. Respir. Cell. Mol. Biol., vol. 27, pp. 593-602 (2002). […] OVA-specific IgE was quantified by a sandwich ELISA (Serotec, Raleigh, N.C.) essentially as described in Oumona et al. (2006).
# [13] = tested on: IL-4, IL-5 and IL-13; assay: Th2 cytokines in BAL fluid of OVA-challenged mice (Bio-Rad Bioplex); format: in vivo; settings: BAL 24 hours after challenge; TIQ-A after versus before OVA challenge
# Description: (§7) Mice were bred in a pathogen-free facility at the Louisiana State University Health Science Center (LSUHSC), New Orleans, La., and were given unlimited access to sterilized chow and water. Animal maintenance, experimental protocols, and procedures were approved by the LSUHSC Animal Care & Use Committee. C57BL/6 mice were purchased from Jackson Laboratories (Bar Harbor, Me.). Six-week old C57BL/6 mice (n z 5) were sensitized with two, 100 μg i.p. injections of Grade V chicken ovalbumin (OVA) (Sigma-Aldrich, St. Louis Mo.), mixed with 2 mg aluminum hydroxide in saline. The two injections were given seven days apart. One week after the second sensitization the mice were placed in a Plexiglas chamber and challenged with aerosolized ovalbumin (3% OVA in saline, generated by a Bennett nebulizer, DeVilbiss, Pa.). The challenged mice were held in the chamber with the aerosolized OVA for 30 min. […]
# (§8) A final volume of 5 ml saline was used in BAL to assess inflammatory cells (48 hours post OVA-challenge), or 1 ml saline was used to assess cytokines or IgE (24 hours post OVA-challenge). […] Mucin was assessed essentially as described in L. Whittaker et al., Am. […] OVA-specific IgE was quantified by a sandwich ELISA (Serotec, Raleigh, N.C.) essentially as described in Oumona et al. (2006).
# [14] = tested on: OVA-specific IgE; assay: OVA-specific IgE in BAL fluid (sandwich ELISA); format: in vivo, mice; settings: 24 hours post-challenge
# Description: as §7, §8
# [15] = tested on: C57BL/6 mice; assay: Mucus production in airways of OVA-challenged mice (PAS staining, histological mucin index); format: in vivo
# Description: as §5, §6
# [16] = tested on: C57BL/6 mice; assay: Airway hyperresponsiveness: lung resistance to methacholine by forced oscillation; format: in vivo; settings: TIQ-A post-OVA challenge; methacholine 50 mg/ml, 24 hours after OVA exposure
# Description: as §5, with “The mice used in each experiment were from the same litter or the same family. Mice were allowed to recover, and then killed by CO2 asphyxiation after 24 or 48 hours. The sacrificed mice were subjected to bronchio-alveolar lavage (BAL), or their lung tissues were dissected, fixed, and processed for histological analysis.” left out
# Twenty-four hours after OVA challenge lung resistance to increasing doses of methacholine (MeCh, Sigma; 0, 25, and 50 mg/ml in isotonic saline) was assessed by forced oscillation, essentially as described in D. You et al., Respir. […]
# [17] = tested on: mice; settings: administration prior to allergen challenge; cited from earlier work
# [18] = Group 3: high fat diet for 16 weeks, TIQ-A 3 mg/kg i.p. three times per week during last 4 weeks
# [19] = Group 6: high fat diet for 12 weeks, then regular diet during last 4 weeks with TIQ-A 3 mg/kg i.p. three times per week
# T1 sequence (P11103 2-1013 limits assumed): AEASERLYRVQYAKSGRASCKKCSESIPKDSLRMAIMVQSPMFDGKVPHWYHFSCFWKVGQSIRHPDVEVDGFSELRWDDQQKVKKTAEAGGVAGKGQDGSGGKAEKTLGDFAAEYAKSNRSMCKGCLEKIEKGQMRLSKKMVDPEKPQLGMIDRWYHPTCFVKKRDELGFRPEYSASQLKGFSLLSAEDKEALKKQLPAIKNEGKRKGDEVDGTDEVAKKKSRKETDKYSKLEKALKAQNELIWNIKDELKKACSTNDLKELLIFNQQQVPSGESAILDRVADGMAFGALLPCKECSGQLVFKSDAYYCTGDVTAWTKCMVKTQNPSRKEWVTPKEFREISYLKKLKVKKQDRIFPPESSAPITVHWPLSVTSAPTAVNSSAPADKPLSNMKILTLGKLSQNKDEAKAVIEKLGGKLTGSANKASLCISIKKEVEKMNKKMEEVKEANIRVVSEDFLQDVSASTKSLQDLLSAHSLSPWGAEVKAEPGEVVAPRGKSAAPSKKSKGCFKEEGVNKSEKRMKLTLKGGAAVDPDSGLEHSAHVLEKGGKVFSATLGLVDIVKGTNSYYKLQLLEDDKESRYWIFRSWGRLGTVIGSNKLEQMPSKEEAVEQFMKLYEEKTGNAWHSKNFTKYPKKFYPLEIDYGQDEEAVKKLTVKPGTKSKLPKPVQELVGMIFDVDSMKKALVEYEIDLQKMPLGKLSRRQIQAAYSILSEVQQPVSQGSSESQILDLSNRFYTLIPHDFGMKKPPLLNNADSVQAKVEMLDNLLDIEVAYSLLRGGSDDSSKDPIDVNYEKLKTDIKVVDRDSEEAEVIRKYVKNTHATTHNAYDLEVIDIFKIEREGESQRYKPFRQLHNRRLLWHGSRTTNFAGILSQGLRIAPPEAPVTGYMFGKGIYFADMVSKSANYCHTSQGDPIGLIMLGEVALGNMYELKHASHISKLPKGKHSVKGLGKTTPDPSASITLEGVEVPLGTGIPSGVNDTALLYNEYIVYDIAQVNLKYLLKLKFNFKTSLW
compound,measurement,setting,value
"O=C1NCCc2c(OCCCCN3CCCCC3)cccc21 [3,4-dihydro-5-[4-(1-piperidinyl)butoxy]-1(2H)-isoquinolinone]",Induced PARP1 activation,[1],inhibited
O=C(Oc1cccc2cnccc12)c1ccccc1 [5-benzoyloxyisoquinoline],Selectivity for the PARP-2 isotype over the PARP-1 isotype,[2],60 fold
"CN1CCN(Cc2ccc3c(c2)-c2n[nH]c(=O)c4cccc(c24)O3)CC1 [GPI 15427, 10-(4-methyl-piperazin-1-ylmethyl)-2H-7-oxa-1,2-diaza-benzo[de]anthracen-3-one]",Anti-inflammatory effects in gut inflammation,[3],potent anti-inflammatory effects
same,Accumulation of poly (ADP-ribose) in ileum and colon,[3],diminished
"CN1CCN(c2ccc3[nH]c(=O)c4ccccc4c3n2)CC1 [GPI 16539, 2-(4-methyl-piperazin-1-yl)-5H-benzo[c][1,5]naphthyridin-6-one]",Anti-inflammatory effects in gut inflammation,[3],potent anti-inflammatory effects
same,Accumulation of poly (ADP-ribose) in ileum and colon,[3],diminished
CN(C)CC(=O)Nc1ccc2[nH]c(=O)c3ccccc3c2c1 [PJ34],Plaque formation in atherosclerosis,[4],markedly decreased
"O=C1N=C2SCC=C2c2ccccc21 [TIQ-A, thieno[2,3-c]isoquinolin-5-one]",Plaque Number (mean ± S.D.) Abdominal Aorta,[5]; [18],5.7 ± 0.94
same,Plaque Number (mean ± S.D.) Thoracic Aorta,[5]; [18],6.0 ± 1.53
same,Plaque size (median ± S.D.) Abdominal Aorta,[5]; [18],3.06 ± 0.66 mm^2
same,Plaque size (median ± S.D.) Thoracic Aorta,[5]; [18],7.18 ± 2.02* mm^2
same,Plaque number in the abdominal region (in words),[5]; Group 6,significant reduction in plaque number
same,"Regression of established plaques, thoracic and abdominal regions of the aorta",[5]; Group 6,statistically significant regression of established plaques
same,Plaque Number (mean ± S.D.) Abdominal Aorta,[5]; [19],4.0 ± 1.29
same,Plaque Number (mean ± S.D.) Thoracic Aorta,[5]; [19],4.20 ± 0.69
same,Plaque size (median ± S.D.) Abdominal Aorta,[5]; [19],1.96 ± 0.48 mm^2
same,Plaque size (median ± S.D.) Thoracic Aorta,[5]; [19],5.12 ± 1.68*‡† mm^2
same,Lesion size in the abdominal region (in words),"[5]; Group 6, difference not statistically significant",trended lower
same,CD68 immunoreactivity,[6]; Group 6,significantly reduced
same,Collagen density by trichrome staining,[6]; Group 6,significant increase in collagen density
same,Fibrous cap by trichrome staining,[6]; Group 6,much thicker fibrous cap
same,Foam cells in plaques,[6]; Group 6,fewer foam cells
same,Plaque size by microscopic examination,[6]; Group 6,much smaller
same,Smooth muscle actin immunoreactivity,[6]; Group 6,significant increase
same,MCP-1 immunoreactivity of plaques,[6]; TIQ-A-treated mice,decrease
same,LDL level,[7],significantly lowered
same,Total cholesterol level,[7],significantly lowered
same,Expression of MCP-1 (RT-PCR),[8],significantly reduced
same,Expression of ICAM-1 (quantitative RT-PCR),[9],significantly reduced
same,TNF expression (quantitative RT-PCR),[10],significantly down-regulated
same,"Expression of the MCP-1 receptor, CCR2",[11],no difference
same,Eosinophil recruitment into lungs,[12]; TIQ-A 6 mg/kg i.p. prior to OVA-challenge,significantly suppressed
same,Number of eosinophils in BAL fluids,[12]; post-challenge administration compared with administration prior to challenge,substantially below that seen when the drug was administered prior to challenge
same,Infiltration of inflammatory cells into the airways,[12]; single TIQ-A i.p. injection one hour or six hours after challenge,greatly reduced
same,"Production of IL-4, IL-5 and IL-13 in BAL fluids",[13],more effectively suppressed by administering TIQ-A after the OVA challenge than before challenge
same,IgE production,[14]; TIQ-A after OVA challenge,almost completely blocked
same,Levels of OVA-specific IgE in BAL fluid,[14]; TIQ-A prior to OVA challenge,moderate reduction
same,PAS-positive goblet cells in lungs,[15]; TIQ-A one or six hours after challenge,nearly absent
same,Mucus production (histological mucin index),[15]; TIQ-A prior to OVA challenge,significantly reduced
same,Mucus production (histological mucin index),[15]; post-challenge treatment with TIQ-A,effectively blocked mucus production completely
same,Airway hyperresponsiveness to inhaled methacholine,[16],almost completely blocked
same,Eosinophil infiltration and associated mucus production in lung airways,[17],suppressed
same,"Th2 cytokines, including IL-4 IL-5 and IL-13",[17],suppressed
CN(C)[C@@H]1C(O)=C(C(N)=O)C(=O)[C@@]2(O)C(O)=C3C(=O)c4c(O)ccc(Cl)c4[C@@H](O)[C@H]3C[C@@H]12 [demeclocycline],Rank order of potency of tetracycline derivatives,[1],minocycline>doxycycline>demeclocycline>chlortetracycline
